According to US7846950B2, “Histamine H3 receptor inhibitors, preparation and therapeutic uses” (Eli Lilly and Company, priority 2004, dated 2010):

Target: T1, human histamine 3 receptor (Homo sapiens, UniProt Q9Y5N1)
T1 construct: expressed in transfected cells; membranes
Assay: H3R binding assay (competitive inhibition SPA, [3H] alpha-methylhistamine, HEK293 H3R8 membranes)
Details: read-out: Human H3 Receptor Ki
Text: The compounds of the present invention can readily be evaluated by using a competitive inhibition Scintillation Proximity Assay (SPA) based on a H3R binding assay using [3H] α methylhistamine as ligand. Stable cell lines, including but not limited to HEK can be transfected with cDNA coding for H3R to prepare membranes used for the binding assay. The technique is illustrated below (Preparation of Histamine Receptor Subtype Membranes) for the histamine receptor subtypes.
cDNA for the human histamine 1 receptor (H1R) was cloned into a mammalian expression vector containing the CMV promoter (pcDNA3.1(+), Invitogen) and transfected into HEK293 cells using the FuGENE Tranfection Reagent (Roche Diagnostics Corporation). Transfected cells were selected using G418 (500 μ/mL). Colonies that survived selection were grown and tested for histamine binding to cells grown in 96-well dishes using a scintillation proximity assay (SPA) based radioligand binding assay. Briefly, cells, representing individual selected clones, were grown as confluent monolayers in 96-well dishes (Costar Clear Bottom Plates, #3632) by seeding wells with 25,000 cells and growing for 48 hours (37° C., 5% CO2). […] Plates were counted in a Wallac Trilux 1450 Microbeta scintillation counter. […]
cDNA for the human histamine 3 receptor was cloned and expressed as described in (A. Preparation H1R membranes), above. […]

T1 sequence (Q9Y5N1 whole entry): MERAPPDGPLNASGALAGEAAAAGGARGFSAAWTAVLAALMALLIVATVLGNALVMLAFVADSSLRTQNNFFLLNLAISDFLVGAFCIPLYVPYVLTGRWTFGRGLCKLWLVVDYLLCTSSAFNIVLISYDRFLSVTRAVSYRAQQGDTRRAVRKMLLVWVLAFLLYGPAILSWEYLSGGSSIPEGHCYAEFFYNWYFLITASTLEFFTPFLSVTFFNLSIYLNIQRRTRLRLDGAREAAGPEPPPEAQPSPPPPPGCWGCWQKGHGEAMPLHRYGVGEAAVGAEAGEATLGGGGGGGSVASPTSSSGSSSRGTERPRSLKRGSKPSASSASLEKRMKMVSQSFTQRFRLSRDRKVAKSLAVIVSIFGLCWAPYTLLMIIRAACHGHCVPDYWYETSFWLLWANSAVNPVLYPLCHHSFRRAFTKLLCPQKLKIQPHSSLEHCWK

| Ki [nM] | SMILES |
| --- | --- |
| 6.2 | O=C(c1ccc(OCc2ccco2)cc1)N1CCC[C@H]1CN1CCCC1 |
| 1.8 | C[C@@H]1CCCN1C[C@@H]1CCCN1C(=O)c1ccc(OCc2ncon2)cc1F |
